Data taken from EP4624454A1, “NON-COVALENT DIMER CATION, AND SALT THEREOF, PREPARATION METHOD THEREFOR AND USE THEREOF” (Suzhou Protonation Chain Biotechnology Co., Ltd, priority 2022, dated 2024).

Experiments:
[1] = tested on: GES-1 human gastric mucosal epithelial cells; assay: cells; type: cell-based; conditions: GES1, 24 h, read-out: Cell viability (%)
Experimental: Long-term alcoholics were prone to gastric mucosal damage due to long-term alcohol damage.
A blank control group (without ethanol) and a model group (with ethanol but without the salt or glycyrrhetinic acid in the examples) were set.
The cells were cultured in a complete RPMI 1640 medium for 6 h.
Then, the cell viability was detected. […] Table 2 Cell viability of ethanol-induced damage models of gastric mucosal epithelial cells

[2] = tested on: SH-SY5Y human neuroblastoma cells; assay: Parkinson's disease cell model (6-OHDA), cell viability; conditions: 24 h, read-out: Cell viability (%)
Experimental: A blank control group (without 6-OHDA) and a model group (with 6-OHDA but without the salt of this example or selegiline) were set.
SH-SY5Y human neuroblastoma cells were uniformly inoculated into a 96-well plate, about 5,000 cells per well. The cells were cultured in a complete DMEM/F12 medium for 6 h. After the cells were completely adhered to the wall, all the media were removed, 100 µL of serum-free DMEM/F12 medium, i.e., a cell culture solution, containing 150 µmol/L of 6-OHDA (a serum-free DMEM/F12 medium without 6-OHDA was added to the blank group), was added to each well, and the cells were incubated and cultured for 24 h.
Then, all the media were removed again, 100 µL of each of serum-free DMEM/ F12 media, i.e., cell culture solutions, containing 0.025 g/mL, 0.05 g/mL, 0.1 g/mL, 0.2 g/mL, 0.4 g/mL and 0.8 g/mL of compound of experimental or control groups (a serum-free DMEM/ F12 medium without compound of experimental or control groups was added to the blank group and a model group) were added to each well according to the groups, and the cells were cultured in a cell culture solution for 24 h.

Structure (SMILES) | viability at 25 µg/mL [1] [%] | viability at 50 µg/mL [1] [%] | viability at 100 µg/mL [1] [%] | viability at 200 µg/mL [1] [%] | viability at 400 µg/mL [1] [%] | viability at 800 µg/mL [1] [%] | viability at 25 µg/mL [2] [%] | viability at 50 µg/mL [2] [%] | viability at 100 µg/mL [2] [%] | viability at 200 µg/mL [2] [%] | viability at 400 µg/mL [2] [%] | viability at 800 µg/mL [2] [%]
CC1(C)[C@@H](O)CC[C@]2(C)[C@H]3C(=O)C=C4[C@@H]5C[C@@](C)(C(=O)O)CC[C@]5(C)CC[C@@]4(C)[C@]3(C)CC[C@@H]12 [Glycyrrhetinic acid, glycyrrhetinic acid] | 59.4 | 61.8 | 64.3 | 65.2 | 68.9 | 71.9 |  |  |  |  |  | 
C#CCN(C)[C@H](C)Cc1ccccc1 [Selegiline, selegiline] |  |  |  |  |  |  | 33.4 | 37.5 | 43.3 | 49.9 | 58.5 | 69.8
